The values below come from patent publication US20190216093A1, “COMPOSITIONS AND RELATED METHODS FOR AGRICULTURE” (priority 2017, published 2019).

The test system of assay [1] is ApGLNT1 glutamine transporter. Conditions: Price et al., 2014 PNAS; cited from earlier work.
The test system of assay [2] is Sitophilus maize weevils. Nature of the assay: Weevil offspring emergence (fecundity). Conditions: 2.5 mg/ml ciprofloxacin; till day 43.
The test system of assay [3] is Sitophilus maize weevils. The assay is described as follows: Weevil F1 offspring development (dissection of corn kernels). The settings on record: for offspring in the larval form: after 25 days; for number of offspring found in dissected corn kernels: after 25 days (water 12). Format: in vivo, Sitophilus zeamais.
In the next assay the test system is Escherichia coli DH5α. The assay is described as follows: Assessment of antibiotic penetration into corn (E. coli growth on LB plates). The format is cell-based. The settings on record: kernels soaked in 2.5 or 0.25 mg/ml ciprofloxacin. How it is done: The kernels were soaked for 1.5 hours as described herein. After soaking, kernels were air dried and assayed to determine whether the antibiotic was able to coat and penetrate the kernel. To test this, a concentrated sample of Escherichia coli DH5α in water was spread onto 5 Luria Broth (LB) plates. […] The plates were incubated overnight at 37 degrees C. and bacterial growth and/or zone(s) of inhibition were assessed the next day.
A concentrated culture of E. coli was then spread onto LB plates and one of the coated kernels was then placed onto the center of the plate. The plates were incubated overnight, and bacterial growth was assessed the next day.
The plates were incubated overnight and the next day bacterial growth was assessed.

Assay [4] has as its system Sitophilus maize weevils. The assay is described as follows: Weevil survival monitoring. The format is in vivo, Sitophilus zeamais. Conditions: S. zeamais mating pairs; 250 μg/ml or 2.5 mg/ml ciprofloxacin; 18 days. As to the method: Sitophilus maize weevils (Sitophilus zeamais) were reared on organic corn at 27.5° C. and 70% relative humidity. Prior to being used for weevil rearing, corn was frozen for 7 days and then tempered to 10% humidity with sterile water. […] For treatments, the appropriate amount of stock solution was diluted in sterile water.
Weevil survival was monitored daily for 18 days, after which DNA was extracted from the remaining weevils in each group. Briefly, the weevil body was surface sterilized by dipping the weevil into a 6% bleach solution for approximately 5 seconds. […] DNA concentration was measured using a nanodrop nucleic acid quantification, and SPE and weevil DNA copy numbers were measured by qPCR. […] The primers used for weevil (β-actin) were SACT144_FOR ([…]; SEQ ID NO: 240) and SACT314_REV ([…]; SEQ ID NO: 241) (Login et al., 2011). qPCR was performed using a qPCR amplification ramp of 1.6 degrees C./s and the following conditions: 1) 95° C. for 10 minutes, 2) 95° C. for 15 seconds, 3) 57° C. for 30 seconds, 4) repeat steps 2-3 40×, 5) 95° C. for 15 seconds, 6) 55° C. for 1 minute, 7) ramp change to 0.15 degrees C./s, 8) 95° C. for 1 second. qPCR data was analyzed using analytic (Thermo Fisher Scientific, QuantStudio Design and Analysis) software.

In a further assay the test system is Plasmodium falciparium. Conditions: previous study (Saliba et al., 2005); cited from earlier work.
Assay [5] deals with Acyrthosiphon pisum aphids. Nature of the assay: Aphid body area (size) measurement from images. Conditions: eNASCO; 10 or 100 uM pantothenol in artificial diet; by 3 days post-treatment. Format: in vivo. As to the method:
For adult aphids, new nymphs were counted daily and then discarded. At the end of the experiments, fecundity was determined as the mean number of offspring produced daily once the aphid reached adulthood. Pictures of aphids were taken throughout the experiment to evaluate size differences between treatment groups.
Each treatment group received approximately the same number of individuals from each of the collection plant. For each treatment, 20 aphids were placed onto each leaf. Aphids were monitored daily for survival and dead aphids were removed when they were discovered. In addition, the developmental stage (1st, 2nd, 3rd, 4th, 5th instar, and 5R, representing a reproducing 5th instar) was determined daily throughout the experiment. […]
For adult aphids, new nymphs were counted daily and then discarded. At the end of the experiments, fecundity was measured in two ways: 1) the mean day at which the first offspring for the treatment group was determined and 2) the mean number of offspring produced daily once the aphid reached adulthood. […]
Aphids LSR-1 (which harbor only Buchnera), Acyrthosiphon pisum were grown on fava bean plants (Vroma vicia faba from Johnny's Selected Seeds) in a climate-controlled incubator (16 h light/8 h dark photoperiod; 60±5% RH; 25±2° C.). […] Aphids were monitored daily for survival and dead aphids were removed from the deep petri dish when they were discovered. […]

Assay [6] concerns Acyrthosiphon pisum aphids. The assay is described as follows: Aphid developmental stage monitoring. Format: in vivo.
The next assay concerns endosymbiotic Buchnera. The assay is described as follows: Buchnera/aphid DNA copy numbers by qPCR. Format: in vivo, Buchnera aphidicola. The settings on record: 10 or 100 uM pantothenol, 8 days. As to the method:
After 7 days of treatment, DNA was extracted from multiple aphids from each treatment group. Briefly, the aphid body surface was sterilized by dipping the aphid into a 6% bleach solution for approximately 5 seconds. Aphids were then rinsed in sterile water and DNA was extracted from each individual aphid using a DNA extraction kit (Qiagen, DNeasy kit) according to manufacturer's instructions. DNA concentration was measured using a nanodrop nucleic acid quantification, and Buchnera and aphid DNA copy numbers were measured by qPCR. […]
After 8 days of treatment, DNA was extracted from multiple aphids from each treatment group. Briefly, the aphid body surface was sterilized by dipping the aphid into a 6% bleach solution for approximately 5 seconds. Aphids were then rinsed in sterile water and DNA was extracted from each individual aphid using a DNA extraction kit (Qiagen, DNeasy kit) according to manufacturer's instructions. DNA concentration was measured using a nanodrop nucleic acid quantification, and Buchnera and aphid DNA copy numbers were measured by qPCR.
After 8 days of treatment, DNA was extracted from the remaining aphids in each treatment group. Briefly, the aphid body surface was sterilized by dipping the aphid into a 6% bleach solution for approximately 5 seconds. Aphids were then rinsed in sterile water and DNA was extracted from each individual aphid using a DNA extraction kit (Qiagen, DNeasy kit) according to manufacturer's instructions. DNA concentration was measured using a nanodrop nucleic acid quantification, and Buchnera and aphid DNA copy numbers were measured by qPCR.
After 7 of treatment, DNA was extracted from the remaining aphids in each treatment group. Briefly, the aphid body surface was sterilized by dipping the aphid into a 6% bleach solution for approximately 5 seconds. Aphids were then rinsed in sterile water and DNA was extracted from each individual aphid using a DNA extraction kit (Qiagen, DNeasy kit) according to manufacturer's instructions. DNA concentration was measured using a nanodrop nucleic acid quantification, and Buchnera and aphid DNA copy numbers were measured by qPCR.
Briefly, the aphid body surface was sterilized by dipping the aphid into a 6% bleach solution for approximately 5 seconds. Aphids were then rinsed in sterile water and DNA was extracted from each individual aphid using a DNA extraction kit (Qiagen, DNeasy kit) according to manufacturer's instructions. DNA concentration was measured using a nanodrop nucleic acid quantification, and Buchnera and aphid DNA copy numbers were measured by qPCR.
After 3 days of treatment, DNA was extracted from the remaining living aphids from each treatment group. Briefly, the aphid body surface was sterilized by dipping the aphid into a 6% bleach solution for approximately 5 seconds. Aphids were then rinsed in sterile water and DNA was extracted from each individual aphid using a DNA extraction kit (Qiagen, DNeasy kit) according to manufacturer's instructions. DNA concentration was measured using a nanodrop nucleic acid quantification, and Buchnera and aphid DNA copy numbers were measured by qPCR. […]
(In general: Real-time PCR tracks product formation cycle by cycle.)

The subject of assay [7] is Acyrthosiphon pisum aphids. Nature of the assay: Aphid survival monitoring. Format: in vivo. The settings on record: eNASCO; for aphid survival rate: leaf coating, 10 uM pantothenol.
Assay [8] relates to Acyrthosiphon pisum aphids. Nature of the assay: Aphid fecundity (offspring production). Format: in vivo. Conditions: for aphid reproduction: 10 or 100 uM pantothenol. As to the method:
In addition, the developmental stage (1st, 2nd, 3rd, 4th, 5th, and 5R (5th that has reproduced) instar) was determined daily throughout the experiment. Once an aphid reached the 4th instar stage, they were given their own artificial feeding system in a deep petri dish so that fecundity could be monitored once they reached adulthood.
For adult aphids, new nymphs were counted daily and then discarded. At the end of the experiments, fecundity was measured in two ways: 1) the mean day at which the first offspring for the treatment group was determined and 2) the mean number of offspring produced daily once the aphid reached adulthood. Pictures of aphids were taken throughout the experiment to evaluate size differences between treatment groups. […]

“Also recorded” adds a separate entry of the source.

For the molecule `N=C(N)NCCC[C@H](N)C(=O)O` [arginine], in assay [1], the glutamine uptake entry is listed as “inhibits glutamine uptake by the glutamine transporter”.
For the molecule `O=C(O)c1cn(C2CC2)c2cc(N3CCNCC3)c(F)cc2c1=O` [ciprofloxacin], in the assay on Sitophilus maize weevils [2], the “emerged F1 offspring” value was “much less offspring that emerged”. Further, the F1 weevil development entry with Sitophilus maize weevils [3] (250 ug/ml and 2.5 mg/ml ciprofloxacin) is reported as “showed a delay in development compared to control treated weevils”. Besides, the figures for the “offspring in the larval form” value with Sitophilus maize weevils [3] (250 ug/ml ciprofloxacin) and in the assay on Sitophilus maize weevils [3] (2.5 mg/ml ciprofloxacin) were 38% and 65%, respectively. Moreover, the “number of offspring found in dissected corn kernels” value with Sitophilus maize weevils [3] (250 ug/ml ciprofloxacin) was found to be 13 offspring; with Sitophilus maize weevils [3] (2.5 mg/ml ciprofloxacin), 20 offspring. In the assay on Escherichia coli DH5α, the “bacterial growth on plate with entire soaked corn kernel” value was “no bacteria grew on plates with entire corn kernels”. The weevil survival entry in the assay on Sitophilus maize weevils [4] is given as “all weevils remained alive for the course of the experiment”.
For `CC(C)(CO)[C@@H](O)C(=O)NCCCO` [pantothenol], the “growth of Plasmodium falciparium” value in the assay with Plasmodium falciparium is “inhibits the growth of Plasmodium falciparium”. Moreover, the aphid area result in [5] is listed as “drastic effect of pantothenol treatment; also recorded: smaller in area than untreated controls”. Also, the aphid developmental stage entry in [6] (eNASCO 1st and 2nd instar, 10 or 100 uM pantothenol in artificial diet without essential amino acids, through plants) is listed as “Development was delayed”; in [6] (eNASCO 1st and 2nd instar, 10 or 100 uM pantothenol in artificial diet without essential amino acids, through plants, listed as Pantothenol), “delayed aphid development”; in assay [6] (eNASCO 1st instar, leaf coating, 10 uM pantothenol in 0.025% Silwet L-77) it was “did not affect aphid development”. Further, the “Buchnera/aphid DNA copies” value with endosymbiotic Buchnera is “does not affect Buchnera/aphid DNA copy number directly”; in the assay on endosymbiotic Buchnera (listed as Pantothenol) it was “did not affect endosymbiotic Buchnera”. In [7] (10 or 100 uM pantothenol in artificial diet, through plants), the aphid survival entry was “increased aphid mortality; also recorded: negatively affected aphid fitness”. The aphid survival rate entry in assay [7] is “lower survival rates than aphids placed on coated leaves with the control solution”; in assay [7] (listed as Pantothenol), “resulted in aphid death”. For the same molecule, the “mean number of offspring per day produced by reproducing aphids” value in [8] (10 uM pantothenol (control approximately 7)) was “approximately 4 offspring/day”; in assay [8] (100 uM pantothenol (control approximately 7)), approximately 5 offspring/day. Moreover, the aphid reproduction entry in assay [8] is “loss of aphid reproduction”; in [8] (listed as Pantothenol) it was “resulted in loss of reproduction”. In addition, the “mean day aphids began reproducing” value in assay [8] (all treatment groups (10 and 100 uM pantothenol)) was 7 days.
